Reference: PMC5103216, “Novel Agonist Bioisosteres and Common Structure-Activity Relationships for The Orphan G Protein-Coupled Receptor GPR139” (Scientific Reports, 2016)

What was measured:
M1 receptor = biological target: T1, M1 receptor (Homo sapiens, UniProt P11229); assay: cAMP dynamic 2 assay measuring Gs activation in CHO-M1 (control); format: cell-based
T1 construct: host or cells: CHO-k1
T1 sequence (P11229 1-460): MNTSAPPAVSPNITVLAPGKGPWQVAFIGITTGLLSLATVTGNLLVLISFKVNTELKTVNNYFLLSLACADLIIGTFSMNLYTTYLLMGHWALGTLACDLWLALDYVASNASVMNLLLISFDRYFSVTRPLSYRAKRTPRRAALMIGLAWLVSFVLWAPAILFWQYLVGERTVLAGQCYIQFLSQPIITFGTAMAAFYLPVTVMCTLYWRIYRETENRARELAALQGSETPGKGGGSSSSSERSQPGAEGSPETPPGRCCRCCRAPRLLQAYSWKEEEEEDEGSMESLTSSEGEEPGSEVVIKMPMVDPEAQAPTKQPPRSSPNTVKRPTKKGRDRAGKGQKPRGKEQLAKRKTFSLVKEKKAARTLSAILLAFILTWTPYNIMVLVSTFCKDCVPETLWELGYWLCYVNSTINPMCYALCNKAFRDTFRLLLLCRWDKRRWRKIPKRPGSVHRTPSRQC
Procedure: The cAMP assay was performed as described in the work by Thomsen et al.[28] with few modifications. Breifly, CHO-139 and CHO-M1 was detached and resuspended to a concentration of 1 million cells/mL. 5 μL 2x concentrated compound (for Gs: +100 μM IBMX and for Gi: +100 μM IBMX +10 μM forskolin (Fsk)) and 5 μL cell suspension (5,000 cells/well) was mixed. The plate was sealed and incubated at room temperature for 30 min. Next, 10 μL detection reagents (lysis buffer containing 2.5% Eu^3+-anti-cAMP antibody and 2.5% cAMP-d2) was added and the plate was incubated for 1 hour at room temperature. The plate was read on an Envision (PerkinElmer, Waltham, MA, USA). The TR-FRET 665 nm/615 nm ratio, which is inversely proportional with the cAMP production, was used to determination the concentration of the cAMP response. […]
Supplementary Figure 1. cAMP dynamic 2 assay measuring Gs activation. 5,000 cells/well of CHO-139 (pink bars) or CHO-M1 (blue bars) cells are
incubated with the indicated compounds for 30 min at room temperature in the presence of 50 µM IBMX. 5 µM and 10 µM forskolin (Fsk) serves as positive
controls. The responses are one representative out of at two independent experiments performed in triplicates. Data points are means ± SD. […]
Data points are means ± SD.

GPR139 = biological target: T2, GPR139 (Homo sapiens, UniProt Q6DWJ6); assay: Fluo-4 Ca2+-assay in CHO-k1 cells stably expressing GPR139 (CHO-GPR139); format: cell-based; conditions: for EC50: CHO-GPR139, mean of at least three experiments; for Emax: CHO-K1, relative to 1a
T2 sequence (Q6DWJ6 1-353): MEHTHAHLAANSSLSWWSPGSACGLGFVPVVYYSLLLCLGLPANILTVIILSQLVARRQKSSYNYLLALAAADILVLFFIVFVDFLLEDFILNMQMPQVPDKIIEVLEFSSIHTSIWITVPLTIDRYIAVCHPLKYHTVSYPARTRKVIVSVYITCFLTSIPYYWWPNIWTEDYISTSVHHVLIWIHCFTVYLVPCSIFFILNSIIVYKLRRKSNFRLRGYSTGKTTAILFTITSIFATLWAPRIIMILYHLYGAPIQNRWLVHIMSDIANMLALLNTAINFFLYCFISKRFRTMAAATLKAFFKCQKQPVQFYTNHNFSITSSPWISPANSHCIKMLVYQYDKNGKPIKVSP
Procedure: Compound 1a[11] was kindly provided by H. Lundbeck A/S, Denmark. Compound 7c (Enamine no: Z31449867) was tested as a racemate, as the (S)-form described by Janssen et al. was not commercially available. All compounds were dissolved to 20 mM in DMSO (Sigma, D2650) and subsequently diluted in a HEPES buffer (HBSS (Invitrogen, 14025) supplemented with 20 mM HEPES + 1 mM MgCl2 + 1 mM CaCl2, pH = 7.4) to a final concentration 0.5% DMSO in the assay. The DMSO level was kept constant for all concentrations of all compounds. DMSO was confirmed not to have any activity by itself at this concentration. L-Tryptophan (T0254) and L-Phenylalanine (P2126) were obtained from Sigma-Aldrich and dissolved directly in buffer.
All compounds were tested on a CHO-k1 cell line stably expressing GPR139 (CHO-GPR139) kindly provided by H. Lundbeck A/S, Denmark, and also on a CHO-k1 cell line stably expressing the M1 receptor (CHO-M1) (The Missouri S&T cDNA Resource Center, #CEM100TN00) to check for specificity. The CHO-GPR139 was grown in Dulbecco’s modified eagle medium (DMEM) F12-Kaighn’s (Gibco, 21127) supplemented with 10% dialysed fetal bovine serum (Gibco, 26400, United States origin), 1% GlutaMAX^TM-I (100X) (Gibco, 35050), and 100 units/mL penicillin and 100 μg/mL streptomycin (Gibco, 15140) and 1.0 mg/mL geneticin (Invitrogen, 1181103). CHO-M1 was grown in Ham’s F12 (Gibco, 21765) supplemented with 10% fetal bovine serum (Gibco, 10270, South America origin) +100 units/mL penicillin and 100 μg/mL streptomycin (Invitrogen, 15140–122) and 0,25 mg/mL geneticin (Life Technologies, 11811–031). Compound 1a and carbamoylcholine chloride (Sigma-Aldrich, C4382) were used as positive controls in the two cell lines, respectively.
30.000 cells/well were plated in black 96-well plates with flat clear bottoms (Corning, Falcon, 353219) and incubated overnight. The Fluo-4 dye loading solution (Invitrogen, F36206) was prepared according to the manufacturer’s instructions by dissolving it in HEPES buffer supplemented with 2.5 mM probenecid. 50 μL dye loading solution was added to each well. Cells were incubated with the Fluo-4 dye for 60 min at 37 °C, then washed with 100 μL HEPES buffer. 100 μL HEPES buffer supplemented with 2.5 mM probenecid was then added to each well and incubated in 10 minutes at 37 °C before measurement. 33 μL of the test compounds (4x concentrated) were added automatically after baseline measurements. Intracellular calcium change was recorded on a NOVOstar instrument (BMG Labtech) at 37 °C with an excitation filter of 485 nm and an emission filters 520 nm. Data originate from three independent experiments in triplicates.

EC50 (GPR139) [nM] | Emax (GPR139) [%] | Structure (SMILES) | Gs response (cAMP) (M1 receptor) | fold lower potency than 1a (GPR139)
888 | 89 | O=C(CNC(=O)c1ccc2c(c1)OCO2)NC1CCSc2ccc(F)cc21 (stereo not drawn) [DL130] | None of the tested compounds induced Gs response | 
505 | 94 | O=C(NCC(=O)N1CCCC1c1ccccc1)c1ccc2c(c1)OCO2 (stereo not drawn) [DL132] | None of the tested compounds induced Gs response | 

More lines, now with the values behind:

Structure (SMILES) | EC50 (GPR139) [nM] | Emax (GPR139) [%] | Gs response (cAMP) (M1 receptor) | fold lower potency than 1a (GPR139)
O=C(CN1CCCc2ccccc21)NNC(=O)c1ccc2c(c1)OCO2 [DL22] | 442 | 105 | None of the tested compounds induced Gs response | 
COc1cc(OC)cc(C(=O)NNC(=O)C2CCCc3ccccc32)c1 (stereo not drawn) [DL24] | 431 | 109 | None of the tested compounds induced Gs response | 
CCn1c(C)nc2cc(C(=O)NNC(=O)Cc3cccc4ccccc34)ccc21 [DL43] | 364 | 97 | None of the tested compounds induced Gs response | ~ 10 fold
O=C(Cc1cccc2ccccc12)NNC(=O)c1ccc2c(c1)OCO2 [DL126] | 411 | 91 | None of the tested compounds induced Gs response | ~ 10 fold
